Laboratory results taken from the NIST ThermoML archive (doi:10.1016/j.jct.2013.04.021).

Assay: xn = mol fraction of the nth substance listed
Conditions: 101 kPa, Liquid; for mass density: Vibrating tube method; for speed of sound: fixed-path interferometer; for viscosity: Capillary tube (Ostwald / Ubbelohde) method

CCCCOCCO [2-butoxyethan-1-ol] + CCCCCCCCCCO
Conditions | mass density [kg/m3] | speed of sound [m/s] | viscosity [mPa·s]
293.15 K, x1 = 0.0563 | 832.457 | 1392 | –
293.15 K, x1 = 0.1024 | 834.521 | 1388.2 | –
293.15 K, x1 = 0.1544 | 836.95 | 1383.8 | –
293.15 K, x1 = 0.2049 | 839.424 | 1379.5 | –
293.15 K, x1 = 0.2531 | 841.903 | 1374.8 | –
293.15 K, x1 = 0.3066 | 844.775 | 1369.9 | –
293.15 K, x1 = 0.4028 | 850.363 | 1360.7 | –
293.15 K, x1 = 0.5033 | 856.773 | 1351.5 | –
293.15 K, x1 = 0.6031 | 863.803 | 1343.5 | –
293.15 K, x1 = 0.7009 | 871.448 | 1337.1 | –
293.15 K, x1 = 0.8043 | 880.396 | 1331.2 | –
293.15 K, x1 = 0.8532 | 884.962 | 1328.7 | –
293.15 K, x1 = 0.8996 | 889.528 | 1326.3 | –
293.15 K, x1 = 0.9447 | 894.239 | 1324.5 | –
298.15 K, x1 = 0.0563 | 829 | 1374.9 | 10.7
298.15 K, x1 = 0.1024 | 831.148 | 1371.1 | 9.884
298.15 K, x1 = 0.1544 | 833.643 | 1366.8 | 9.125
298.15 K, x1 = 0.2049 | 836.177 | 1362.6 | 8.425
298.15 K, x1 = 0.2531 | 838.694 | 1358.3 | 7.84
298.15 K, x1 = 0.3066 | 841.628 | 1353.7 | 7.29
298.15 K, x1 = 0.4028 | 847.26 | 1344.9 | 6.351
298.15 K, x1 = 0.5033 | 853.675 | 1336.1 | 5.491
298.15 K, x1 = 0.6031 | 860.637 | 1328.2 | 4.852
298.15 K, x1 = 0.7009 | 868.128 | 1321.1 | 4.26
298.15 K, x1 = 0.8043 | 876.828 | 1314.9 | 3.68
298.15 K, x1 = 0.8532 | 881.288 | 1312.6 | 3.446
298.15 K, x1 = 0.8996 | 885.737 | 1310.2 | 3.261
298.15 K, x1 = 0.9447 | 890.317 | 1308.3 | 3.107
303.15 K, x1 = 0.0563 | 825.535 | 1358.1 | 8.765
303.15 K, x1 = 0.1024 | 827.625 | 1354.4 | 8.155
303.15 K, x1 = 0.1544 | 830.09 | 1350.1 | 7.554
303.15 K, x1 = 0.2049 | 832.6 | 1345.9 | 7.026
303.15 K, x1 = 0.2531 | 835.09 | 1341.7 | 6.577
303.15 K, x1 = 0.3066 | 837.986 | 1337.1 | 6.114
303.15 K, x1 = 0.4028 | 843.566 | 1328.9 | 5.33
303.15 K, x1 = 0.5033 | 849.927 | 1320.8 | 4.683
303.15 K, x1 = 0.6031 | 856.84 | 1313.2 | 4.089
303.15 K, x1 = 0.7009 | 864.279 | 1306.3 | 3.638
303.15 K, x1 = 0.8043 | 872.98 | 1299.7 | 3.162
303.15 K, x1 = 0.8532 | 877.42 | 1296.7 | 2.979
303.15 K, x1 = 0.8996 | 881.86 | 1294.2 | 2.814
303.15 K, x1 = 0.9447 | 886.371 | 1291.7 | 2.671
308.15 K, x1 = 0.0563 | 822.068 | 1341.5 | 7.476
308.15 K, x1 = 0.1024 | 824.141 | 1337.8 | 6.95
308.15 K, x1 = 0.1544 | 826.569 | 1333.9 | 6.449
308.15 K, x1 = 0.2049 | 829.044 | 1330 | 5.981
308.15 K, x1 = 0.2531 | 831.491 | 1326.1 | 5.619
308.15 K, x1 = 0.3066 | 834.361 | 1321.8 | 5.215
308.15 K, x1 = 0.4028 | 839.86 | 1314.1 | 4.618
308.15 K, x1 = 0.5033 | 846.141 | 1306 | 4.088
308.15 K, x1 = 0.6031 | 852.988 | 1298.2 | 3.601
308.15 K, x1 = 0.7009 | 860.384 | 1290.9 | 3.195
308.15 K, x1 = 0.8043 | 869.011 | 1283.7 | 2.808
308.15 K, x1 = 0.8532 | 873.415 | 1280.6 | 2.609
308.15 K, x1 = 0.8996 | 877.785 | 1277.7 | 2.453
308.15 K, x1 = 0.9447 | 882.225 | 1275.3 | 2.295
313.15 K, x1 = 0.0563 | 818.532 | 1324.8 | –
313.15 K, x1 = 0.1024 | 820.551 | 1321.5 | –
313.15 K, x1 = 0.1544 | 822.945 | 1317.8 | –
313.15 K, x1 = 0.2049 | 825.399 | 1314.2 | –
313.15 K, x1 = 0.2531 | 827.825 | 1310.6 | –
313.15 K, x1 = 0.3066 | 830.657 | 1306.6 | –
313.15 K, x1 = 0.4028 | 836.098 | 1299.4 | –
313.15 K, x1 = 0.5033 | 842.307 | 1292 | –
313.15 K, x1 = 0.6031 | 849.078 | 1284.5 | –
313.15 K, x1 = 0.7009 | 856.416 | 1277 | –
313.15 K, x1 = 0.8043 | 864.959 | 1269.4 | –
313.15 K, x1 = 0.8532 | 869.328 | 1266.2 | –
313.15 K, x1 = 0.8996 | 873.661 | 1262.7 | –
313.15 K, x1 = 0.9447 | 878.012 | 1259.7 | –
